Source: patent US9776127B2, “Reversible light driven gas absorbent solution and process” (Commonwealth Scientific and Industrial Research Organisation, priority 2013, dated 2017)

Experiment: pKa of photoactive compound in ground and excited state
Format: physicochemical
Source text: The operating range of the photoactive compound may be related to the difference in pKa between the excited and ground states of the photoactive molecule. The operating range may be ascertained by determining the pKa of the photoactive compound in its ground state (e.g. the base or relatively weak acid form) and the pKa of the compound in its excited state (e.g. the relatively strong acidic form). The difference in pKa between these two forms therefore defines the operating range of the photoactive compound. […] The requirement to select an amine for use with a photochromic molecule that results in an absorbent pH within the working range of the photochromic molecule can be illustrated by calculation. […] The pH of a mixture containing 0.5 M amine and 0.25 M MEH (ground state) as a function of absorbed CO2 and 0.5 M amine and 0.25 spiropyran (excited state) as function of absorbed CO2 was calculated using the published method Puxty, […]. Int. […]. Gas Control, 17 (2013), 215-224. The difference in pH of the absorbent at each concentration of absorbed CO2 is indicative of the ability of excitation to remove CO2 from the absorbent. […] Chem. Thermodynamics, 51 (2012), 97-102 and Fernandes, D., et al., J. Chem. Thermodynamics, 54 (2012), 183-191.

SMILES | pKa (excited state) | pKa (ground state) | pKa (aqueous solution, ground state, aqueous solution at room temperature)
O=[N+]([O-])CCc1c(O)ccc2ccccc12 [1-(2-nitroethyl)-2-naphthol] | 1.9 | 9.7 | –
CC1(C)C(/C=C/c2ccccc2O)=[N+](CCCS(=O)(=O)[O-])c2ccccc21 [MEH] | – | – | 7.8
